# According to US8288375B2, “Fungicidal bicyclic pyrazoles” (E.I. du Pont de Nemours and Company, priority 2007, dated 2012):
# Experiments:
# Format in all cases: in vivo
# Septoria nodorum = assay: Test D: wheat glume blotch, test suspension sprayed on wheat seedlings, disease rating; details: 200 ppm test suspension
# [1] = test system: Puccinia recondite f sp. tritici; assay: Test B: wheat leaf rust, test suspension sprayed on wheat seedlings, disease rating; details: 200 ppm test suspension;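 also: 200 ppm unless marked * meaning 40 ppm or ** meaning 10 ppm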
# [2] = test system: Erysiphe graminis f. sp. tritici; assay: Test A: wheat powdery mildew, test suspension sprayed on wheat seedlings, disease rating; details: 200 ppm test suspension; 100 = 100% disease control, 0 = no control
# Fusarium graminearum = assay: whole plant or invertebrate; details: 200 ppm test suspension
# Pythium aphanidermatum = assay: Test L: bluegrass pythium blight, test suspension sprayed on bluegrass seedlings, disease rating; details: 200 ppm test suspension;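 also: 200 ppm unless marked * meaning 40 ppm or ** meaning 10 ppm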
# Phytophthora infestans = assay: whole plant or invertebrate; details: 200 ppm test suspension
# Septoria tritici = assay: Test E: wheat leaf blotch, test suspension sprayed on wheat seedlings, disease rating; details: 200 ppm test suspension;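 also: 200 ppm unless marked * meaning 40 ppm or ** meaning 10 ppm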
structure (smiles),measurement,setting,value
CC(CO)Nc1nccc(-c2c(-c3ccsc3)nn3c2CCCC3)n1 (stereo not shown) [compound 42],Test D disease control rating,Septoria nodorum,0%
same,Test B disease control rating,[1],85%
same,Test A disease control rating,[2],0%
same,Test C disease control rating,Fusarium graminearum,66%
same,Test L disease control rating,Pythium aphanidermatum,100%
same,Test J disease control rating,Phytophthora infestans,99%
same,Test E disease control rating,Septoria tritici,59%
OC1(CNc2nccc(-c3c(-c4ccc(F)cc4)nn4c3CCCC4)n2)CC1 [compound 44],Test D disease control rating,Septoria nodorum,89%
same,Test B disease control rating,[1],85%
same,Test A disease control rating,[2],91%
same,Test C disease control rating,Fusarium graminearum,99%
same,Test L disease control rating,Pythium aphanidermatum,0%
same,Test J disease control rating,Phytophthora infestans,65%
same,Test E disease control rating,Septoria tritici,100%
Cc1ccccc1-c1nn2c(c1-c1ccnc(NC(C)C)n1)CCCC2 [compound 45],Test D disease control rating,Septoria nodorum,60%
same,Test B disease control rating,[1],89%
same,Test A disease control rating,[2],41%
same,Test C disease control rating,Fusarium graminearum,0%
same,Test L disease control rating,Pythium aphanidermatum,85%
same,Test J disease control rating,Phytophthora infestans,76%
same,Test E disease control rating,Septoria tritici,97%
CC(C)Nc1nccc(-c2c(-c3ccc(F)cc3)nn3c2CCCC3)n1.Cl [compound 69],Test D disease control rating,Septoria nodorum,99%
same,Test B disease control rating,[1],97%
same,Test A disease control rating,[2],59%
same,Test C disease control rating,Fusarium graminearum,100%
same,Test L disease control rating,Pythium aphanidermatum,100%
same,Test J disease control rating,Phytophthora infestans,97%
same,Test E disease control rating,Septoria tritici,100%
CC(C)Nc1nccc(-c2c(-c3cccc(F)c3)nn3c2CCC3)n1 [compound 102],Test D disease control rating,Septoria nodorum,97%
same,Test B disease control rating,[1],92%
same,Test A disease control rating,[2],73%
same,Test C disease control rating,Fusarium graminearum,100%
same,Test L disease control rating,Pythium aphanidermatum,99%
same,Test J disease control rating,Phytophthora infestans,96%
same,Test E disease control rating,Septoria tritici,100%
CCN1CCCC1CNc1nccc(-c2c(-c3ccc(F)cc3)nn3c2CCCC3)n1 (stereo not shown) [compound 41],Test D disease control rating,Septoria nodorum,0%
same,Test B disease control rating,[1],79%
same,Test A disease control rating,[2],0%
same,Test C disease control rating,Fusarium graminearum,0%
same,Test L disease control rating,Pythium aphanidermatum,91%
same,Test J disease control rating,Phytophthora infestans,0%
same,Test E disease control rating,Septoria tritici,50%
Fc1ccc(-c2nn3c(c2-c2ccnc(Oc4ccc(-n5cccc5)cc4)n2)CCCC3)cc1 [Compound 106],Test D disease control rating,Septoria nodorum,69%
same,Test B disease control rating,[1],94%
same,Test A disease control rating,[2],0%
same,Test C disease control rating,Fusarium graminearum,92%
same,Test L disease control rating,Pythium aphanidermatum,0%
same,Test J disease control rating,Phytophthora infestans,9%
same,Test E disease control rating,Septoria tritici,72%
Cc1cc(-c2nn3c(c2-c2ccnc(NC4CC4)n2)COCC3)ccc1F [compound 119],Test D disease control rating,Septoria nodorum,99%
same,Test B disease control rating,[1],76%
same,Test A disease control rating,[2],61%
same,Test C disease control rating,Fusarium graminearum,100%
same,Test L disease control rating,Pythium aphanidermatum,92%
same,Test J disease control rating,Phytophthora infestans,93%
same,Test E disease control rating,Septoria tritici,87%
CC(C)CNc1nccc(-c2c(-c3ccccc3F)nn3c2CCC3)n1 [compound 98],Test D disease control rating,Septoria nodorum,82%
same,Test B disease control rating,[1],74%
same,Test A disease control rating,[2],0%
same,Test C disease control rating,Fusarium graminearum,97%
same,Test L disease control rating,Pythium aphanidermatum,99%
same,Test J disease control rating,Phytophthora infestans,88%
same,Test E disease control rating,Septoria tritici,95%
CCC(CO)Nc1nccc(-c2c(-c3ccc(F)cc3)nn3c2CCCC3)n1 (stereo not shown) [compound 31],Test D disease control rating,Septoria nodorum,78%
same,Test B disease control rating,[1],95%
same,Test A disease control rating,[2],0%
same,Test C disease control rating,Fusarium graminearum,94%
same,Test L disease control rating,Pythium aphanidermatum,99%
same,Test J disease control rating,Phytophthora infestans,80%
same,Test E disease control rating,Septoria tritici,98%
CC(C)Nc1nccc(-c2c(-c3ccsc3)nn3c2CCCC3)n1 [compound 43],Test D disease control rating,Septoria nodorum,90%
same,Test B disease control rating,[1],92%
same,Test A disease control rating,[2],0%
same,Test C disease control rating,Fusarium graminearum,98%
same,Test L disease control rating,Pythium aphanidermatum,100%
same,Test J disease control rating,Phytophthora infestans,97%
same,Test E disease control rating,Septoria tritici,96%
CC(COC(=O)CCC(=O)O)Nc1nccc(-c2c(-c3ccc(F)cc3)nn3c2CCCC3)n1 (stereo not shown) [compound 66],Test D disease control rating,Septoria nodorum,0%
same,Test B disease control rating,[1],88%
same,Test A disease control rating,[2],0%
same,Test C disease control rating,Fusarium graminearum,83%
same,Test L disease control rating,Pythium aphanidermatum,100%
same,Test J disease control rating,Phytophthora infestans,97%
same,Test E disease control rating,Septoria tritici,72%
Fc1ccc(-c2nn3c(c2-c2ccnc(N4CCC4)n2)CCCC3)cc1 [compound 82],Test D disease control rating,Septoria nodorum,60%
same,Test B disease control rating,[1],91%
same,Test A disease control rating,[2],81%
same,Test C disease control rating,Fusarium graminearum,96%
same,Test L disease control rating,Pythium aphanidermatum,0%
same,Test J disease control rating,Phytophthora infestans,99%
same,Test E disease control rating,Septoria tritici,97%
Cc1cc(-c2nn3c(c2-c2ccnc(NC(C)CO)n2)COCC3)ccc1F (stereo not shown) [compound 123],Test D disease control rating,Septoria nodorum,0%
same,Test B disease control rating,[1],90%
same,Test A disease control rating,[2],0%
same,Test C disease control rating,Fusarium graminearum,99%
same,Test L disease control rating,Pythium aphanidermatum,100%
same,Test J disease control rating,Phytophthora infestans,91%
same,Test E disease control rating,Septoria tritici,31%
CC(CO)Nc1nccc(-c2c(-c3ccccc3)nn3c2COCC3)n1 (stereo not shown) [compound 122],Test D disease control rating,Septoria nodorum,73%
same,Test B disease control rating,[1],96%
same,Test A disease control rating,[2],0%
same,Test C disease control rating,Fusarium graminearum,99%
same,Test L disease control rating,Pythium aphanidermatum,100%
same,Test J disease control rating,Phytophthora infestans,99%
same,Test E disease control rating,Septoria tritici,80%
OCC(CO)Nc1nccc(-c2c(-c3ccc(F)cc3)nn3c2CCCC3)n1 [compound 63],Test D disease control rating,Septoria nodorum,0%
same,Test B disease control rating,[1],91%
same,Test A disease control rating,[2],81%
same,Test C disease control rating,Fusarium graminearum,0%
same,Test L disease control rating,Pythium aphanidermatum,100%
same,Test J disease control rating,Phytophthora infestans,9%
same,Test E disease control rating,Septoria tritici,82%
C[C@@H](CO)Nc1nccc(-c2c(-c3ccc(F)cc3)nn3c2CCCC3)n1 [compound 48],Test D disease control rating,Septoria nodorum,0%
same,Test B disease control rating,[1],99%
same,Test A disease control rating,[2],0%
same,Test C disease control rating,Fusarium graminearum,99%
same,Test L disease control rating,Pythium aphanidermatum,100%
same,Test J disease control rating,Phytophthora infestans,99%
same,Test E disease control rating,Septoria tritici,99%
CC(CO)Nc1nccc(-c2c(-c3ccccc3F)nn3c2CCCC3)n1 (stereo not shown) [compound 38],Test D disease control rating,Septoria nodorum,64%
same,Test B disease control rating,[1],94%
same,Test A disease control rating,[2],0%
same,Test C disease control rating,Fusarium graminearum,96%
same,Test L disease control rating,Pythium aphanidermatum,99%
same,Test J disease control rating,Phytophthora infestans,95%
same,Test E disease control rating,Septoria tritici,92%
C[Si](C)(C)CNc1nccc(-c2c(-c3ccc(F)cc3)nn3c2CCCC3)n1 [compound 35],Test D disease control rating,Septoria nodorum,99%
same,Test B disease control rating,[1],99%
same,Test A disease control rating,[2],0%
same,Test C disease control rating,Fusarium graminearum,99%
same,Test L disease control rating,Pythium aphanidermatum,0%
same,Test J disease control rating,Phytophthora infestans,67%
same,Test E disease control rating,Septoria tritici,100%
Cc1cc(-c2nn3c(c2-c2ccnc(NC(C)C)n2)COCC3)ccc1F [compound 120],Test D disease control rating,Septoria nodorum,100%
same,Test B disease control rating,[1],90%
same,Test A disease control rating,[2],86%
same,Test C disease control rating,Fusarium graminearum,100%
same,Test L disease control rating,Pythium aphanidermatum,98%
same,Test J disease control rating,Phytophthora infestans,88%
same,Test E disease control rating,Septoria tritici,95%
Fc1cc(F)cc(-c2nn3c(c2-c2ccnc(NC4CC4)n2)CCC3)c1 [compound 104],Test D disease control rating,Septoria nodorum,0%
same,Test B disease control rating,[1],0%
same,Test A disease control rating,[2],0%
same,Test C disease control rating,Fusarium graminearum,55%
same,Test L disease control rating,Pythium aphanidermatum,91%
same,Test J disease control rating,Phytophthora infestans,88%
same,Test E disease control rating,Septoria tritici,88%
CC(COC(=O)c1cccnc1)Nc1nccc(-c2c(-c3ccc(F)cc3)nn3c2CCCC3)n1 (stereo not shown) [compound 68],Test D disease control rating,Septoria nodorum,95%
same,Test B disease control rating,[1],98%
same,Test A disease control rating,[2],0%
same,Test C disease control rating,Fusarium graminearum,99%
same,Test L disease control rating,Pythium aphanidermatum,100%
same,Test J disease control rating,Phytophthora infestans,95%
same,Test E disease control rating,Septoria tritici,93%
COCC(C)Nc1nccc(-c2c(-c3cccc(F)c3)nn3c2CCC3)n1 (stereo not shown) [compound 100],Test D disease control rating,Septoria nodorum,90%
same,Test B disease control rating,[1],89%
same,Test A disease control rating,[2],0%
same,Test C disease control rating,Fusarium graminearum,99%
same,Test L disease control rating,Pythium aphanidermatum,100%
same,Test J disease control rating,Phytophthora infestans,98%
same,Test E disease control rating,Septoria tritici,92%
COCC(C)Nc1nccc(-c2c(-c3ccccc3F)nn3c2CCC3)n1 (stereo not shown) [compound 96],Test D disease control rating,Septoria nodorum,0%
same,Test B disease control rating,[1],19%
same,Test A disease control rating,[2],0%
same,Test C disease control rating,Fusarium graminearum,96%
same,Test L disease control rating,Pythium aphanidermatum,83%
same,Test J disease control rating,Phytophthora infestans,98%
same,Test E disease control rating,Septoria tritici,62%
C[C@H](CO)Nc1nccc(-c2c(-c3ccc(F)cc3)nn3c2CCCC3)n1 [compound 47],Test D disease control rating,Septoria nodorum,0%
same,Test B disease control rating,[1],91%
same,Test A disease control rating,[2],0%
same,Test C disease control rating,Fusarium graminearum,69%
same,Test L disease control rating,Pythium aphanidermatum,100%
same,Test J disease control rating,Phytophthora infestans,99%
same,Test E disease control rating,Septoria tritici,94%
CONc1nccc(-c2c(-c3ccc(F)cc3)nn3c2CCCC3)n1 [compound 65],Test D disease control rating,Septoria nodorum,31%
same,Test B disease control rating,[1],65%
same,Test A disease control rating,[2],28%
same,Test C disease control rating,Fusarium graminearum,87%
same,Test L disease control rating,Pythium aphanidermatum,99%
same,Test J disease control rating,Phytophthora infestans,43%
same,Test E disease control rating,Septoria tritici,98%
CC(C)Nc1nccc(-c2c(-c3ccsc3)nn3c2COCC3)n1 [compound 118],Test D disease control rating,Septoria nodorum,78%
same,Test B disease control rating,[1],86%
same,Test A disease control rating,[2],0%
same,Test C disease control rating,Fusarium graminearum,98%
same,Test L disease control rating,Pythium aphanidermatum,99%
same,Test J disease control rating,Phytophthora infestans,80%
same,Test E disease control rating,Septoria tritici,82%
CC(C)(CO)Nc1nccc(-c2c(-c3ccc(F)cc3)nn3c2CCCC3)n1 [compound 30],Test D disease control rating,Septoria nodorum,69%
same,Test B disease control rating,[1],91%
same,Test A disease control rating,[2],0%
same,Test C disease control rating,Fusarium graminearum,92%
same,Test L disease control rating,Pythium aphanidermatum,0%
same,Test J disease control rating,Phytophthora infestans,47%
same,Test E disease control rating,Septoria tritici,93%
